# Test results taken from PMC7688068 (Journal of medicinal chemistry, 2020).
# Columns and labels:
# Raw264.7 cells = format: in vitro ADME, mouse; settings: for cellular uptake (cellular bioavailability): LC-MS-based method; for cellular permeability compared to positive control compound 9 of ref 55: 20 μM input, 2 h, 37 °C
# mPTPB [1] = target: T1, mPTPB (Mycobacterium tuberculosis, UniProt I6WXK4); format: biochemical
# mPTPB [2] = target: T1, mPTPB; format: biochemical; remark: listed apart in the source
# [3] = system: Raw 264.7 vector cells (pcN-HA); experiment: signaling in vector control cells, western blot, IFN-γ stimulated; format: cell-based, mouse; settings: IFN-γ stimulation
# [4] = system: mouse embryonic fibroblasts (MEF cells); settings: 72 h, up to 25 μM
# T1 sequence (I6WXK4 whole entry, looked up): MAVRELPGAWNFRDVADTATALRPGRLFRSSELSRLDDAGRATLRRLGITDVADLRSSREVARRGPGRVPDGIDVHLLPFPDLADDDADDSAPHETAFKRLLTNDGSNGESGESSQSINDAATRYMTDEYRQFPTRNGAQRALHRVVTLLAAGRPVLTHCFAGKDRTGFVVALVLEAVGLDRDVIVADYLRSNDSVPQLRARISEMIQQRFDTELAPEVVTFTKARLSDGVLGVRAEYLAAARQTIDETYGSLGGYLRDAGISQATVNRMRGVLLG
compound,measurement,setting,value
"O=C(O)C(=O)Nc1ccc(C#Cc2ccc(C(F)(F)F)cc2F)cc1 [Compound 4v, 2-((4-((2-Fluoro-4-(trifluoromethyl)phenyl)ethynyl)phenyl)amino)-2-oxoacetic Acid]",cellular uptake (cellular bioavailability),Raw264.7 cells,can easily be taken up
"O=C(O)C(=O)Nc1ccc(/C=C\c2ccccc2)cc1 [Compound 9, (Z)-2-Oxo-2-((4-styrylphenyl)amino)acetic Acid]",fold less potency compared to corresponding alkyne analogue,mPTPB [1],3 fold
"O=C(O)C(=O)Nc1ccc(/C=C\c2ccc(C(F)(F)F)cc2)cc1 [Compound 10, (Z)-2-Oxo-2-((4-(4-(trifluoromethyl)styryl)phenyl)amino)acetic Acid]",fold less potency compared to corresponding alkyne analogue,mPTPB [1],45 fold
"O=C(O)C(=O)Nc1ccc(C#Cc2ccc(C(F)(F)F)cc2Cl)cc1 [Compound 4t, 2-((4-((2-Chloro-4-(trifluoromethyl)phenyl)ethynyl)phenyl)amino)-2-oxoacetic Acid]",mode of mPTPB inhibition,mPTPB [2],reversible and competitive inhibitor
same,cellular permeability compared to positive control compound 9 of ref 55,Raw264.7 cells,better cellular permeability
same,cellular uptake (cellular bioavailability),Raw264.7 cells,can easily be taken up
same,"pAKT, pERK1/2 and pp38 levels compared to vehicle-treated cells",[3],no significant change
same,"cytotoxicity (cell viability, MTT)",[4],did not exhibit any significant cytotoxicity
"O=C(O)C(=O)Nc1ccc(C#Cc2ccc(C(F)(F)F)cc2)cc1 [Compound 4k, 2-Oxo-2-((4-((4-(trifluoromethyl)phenyl)ethynyl)phenyl)amino)acetic Acid]",cellular permeability compared to positive control compound 9 of ref 55,Raw264.7 cells,better cellular permeability
same,cellular uptake (cellular bioavailability),Raw264.7 cells,can easily be taken up
"O=C(O)C(=O)Nc1ccc(CCc2ccccc2)cc1 [Compound 11, 2-Oxo-2-((4-phenethylphenyl)amino)acetic Acid]",fold less potency compared to corresponding alkyne analogue,mPTPB [1],5 fold
"O=C(O)C(=O)Nc1ccc(CCc2ccc(C(F)(F)F)cc2)cc1 [Compound 12, 2-Oxo-2-((4-(4-(trifluoromethyl)phenethyl)phenyl)amino)acetic Acid]",fold less potency compared to corresponding alkyne analogue,mPTPB [1],13 fold
"CC(C)(C)OC(=O)Nc1ccc(C#Cc2ccc(NC(=O)C(=O)O)cc2)cc1 [Compound 4s, 2-((4-((4-((tert-Butoxycarbonyl)amino)phenyl)ethynyl)phenyl)amino)-2-oxoacetic Acid]",cellular permeability compared to positive control compound 9 of ref 55,Raw264.7 cells,better cellular permeability
same,"cytotoxicity (cell viability, MTT)",[4],did not exhibit any significant cytotoxicity
"O=C(O)C(=O)Nc1ccc(C#Cc2ccc(C(F)(F)F)cc2Br)cc1 [Compound 4u, 2-((4-((2-Bromo-4-(trifluoromethyl)phenyl)ethynyl)phenyl)amino)-2-oxoacetic Acid]",cellular permeability compared to positive control compound 9 of ref 55,Raw264.7 cells,better cellular permeability
same,cellular uptake (cellular bioavailability),Raw264.7 cells,can easily be taken up
